Test results reported in patent US8426447B2, “Spiro-tricyclic ring compounds as beta-secretase modulators and methods of use” (Amgen Inc., priority 2008, dated 2013).
pIC50: −log10 of the molar value. Values belong to the molecule of their own block, whether it stands above or below them.

Key:
BACE1 [1] = target: T1, BACE1 (Homo sapiens, UniProt P56817); test: In Vitro Enzymatic BACE FRET (Fluorescence Resonance Energy Transfer) Assay; assay type: biochemical; details: read-out: BACE1 FRET assay; for IC50: Table III, IC50's in uM ranges
Method in brief: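 First, compound and enzyme sit in 0.05 M acetate (pH 4.2, 10% DMSO final, 100 uM nonionic genapol). Next, 50 nM quenched FRET peptide starts the reaction for one hour. Last, Tris neutralises the mixture before fluorescence is measured.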

BACE1 [2] = target: T1, BACE1; test: In Vitro BACE Cell-based Assay (HEK cell assay): Aβ40 in conditioned medium of cells stably expressing Amyloid Precursor Protein, sandwich ELISA; details: read-out: HEK cell assay; for IC50: Table III, IC50's in uM ranges
Method in brief: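 Conditioned medium Aβ40 by ELISA: pAb40 capture 3 h 4° C., biotin-6E10 detection 2 h 4° C., Streptavidin-Europium TRF. IC50 fitted from % control.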

[3] = in vitro BACE FRET enzyme assay, IC50 class symbols
[4] = HEK cell-based assay, Aβ40 in conditioned medium, IC50 class symbols

T1 sequence (P56817 46-501, species assumed): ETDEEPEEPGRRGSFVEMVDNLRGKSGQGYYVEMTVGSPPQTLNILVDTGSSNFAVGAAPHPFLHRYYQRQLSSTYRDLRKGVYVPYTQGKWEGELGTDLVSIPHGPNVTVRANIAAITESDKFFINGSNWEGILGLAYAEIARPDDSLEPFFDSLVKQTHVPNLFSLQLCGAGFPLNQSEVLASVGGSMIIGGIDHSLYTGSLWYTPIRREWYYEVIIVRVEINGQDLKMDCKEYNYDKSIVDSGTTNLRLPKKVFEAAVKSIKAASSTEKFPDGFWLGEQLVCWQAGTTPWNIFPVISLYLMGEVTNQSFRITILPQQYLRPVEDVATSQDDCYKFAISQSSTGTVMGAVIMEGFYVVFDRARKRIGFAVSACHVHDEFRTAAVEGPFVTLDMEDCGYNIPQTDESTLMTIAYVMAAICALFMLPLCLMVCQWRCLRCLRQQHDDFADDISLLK

- pIC50 (BACE1 [1]): 5.30 to 6.00
- pIC50 (BACE1 [2]): < 5.30
SMILES: COC(C)(C)C#Cc1cnc2c(c1)[C@]1(COC(N)=N1)c1cc(-c3ccnc(F)c3)ccc1O2 [compound 687]

- pIC50 (BACE1 [1]; Table IV, class symbols): 5.30 to 6.00
- pIC50 (BACE1 [2]; Table IV, class symbols): < 5.30
SMILES: COc1cnc2c(c1)[C@]1(COC(N)=N1)c1cc(Br)ccc1O2 [compound 542]

- pIC50 (BACE1 [1]): < 5.30
- pIC50 (BACE1 [2]): < 5.30
SMILES: CC(C)(O)C#Cc1cnc2c(c1)[C@@]1(COC(N)=N1)c1cc(C#CC3CC3)ccc1O2 [compound 705]

- pIC50 (BACE1 [1]; Table IV, class symbols): > 7.00
- pIC50 (BACE1 [2]; Table IV, class symbols): > 7.00
SMILES: COC(C)(C)C#Cc1cnc2c(c1)[C@]1(COC(N)=N1)c1cc(-c3cncnc3)ccc1O2 [compound 822]

- pIC50 (BACE1 [1]; Table IV, class symbols): > 7.00
- pIC50 (BACE1 [2]; Table IV, class symbols): > 7.00
SMILES: CC(=O)COc1ccc2c(c1)[C@]1(COC(N)=N1)c1cc(-c3cccnc3)ccc1O2 [compound 923]

- pIC50 (BACE1 [1]): > 7.00
- pIC50 (BACE1 [2]; HEK cells): > 7.00
SMILES: CC(C)(C)C#Cc1cc2c(cn1)Oc1ccc(-c3cncnc3)cc1[C@@]21COC(N)=N1 [compound 512, (5S)-3-(3,3-dimethyl-1-butyn-1-yl)-7-(5-pyrimidinyl)spiro[chromeno[2,3-c]pyridine-5,4′-[1,3]oxazol]-2′-amine]

- pIC50 (BACE1 [1]; Table IV, class symbols): > 7.00
- pIC50 (BACE1 [2]; Table IV, class symbols): > 7.00
SMILES: CC(C)(C)CCc1cnc2c(c1)[C@]1(COC(N)=N1)c1cc(-c3cccnc3)ccc1O2 [compound 922]

- pIC50 (BACE1 [1]; Table IV, class symbols): 6.00 to 7.00
- pIC50 (BACE1 [2]; Table IV, class symbols): 6.00 to 7.00
SMILES: CN(C)C(=O)c1ccc2c(c1)[C@]1(COC(N)=N1)c1cc(OCC(C)(C)C)ccc1O2 [compound 799]

- pIC50 (BACE1 [1]): 6.00 to 7.00
- pIC50 (BACE1 [2]): 6.00 to 7.00
SMILES: NC1=N[C@]2(CO1)c1ccccc1Oc1ccc(-c3cccnc3)cc12 [compound 684]

- pIC50 (BACE1 [1]; Table IV, class symbols): > 7.00
- pIC50 (BACE1 [2]; Table IV, class symbols): > 7.00
SMILES: CC(C)(O)C#Cc1cnc2c(c1)[C@]1(COC(N)=N1)c1cc(-c3ccccc3)ccc1O2 [compound 647]

- pIC50 (BACE1 [1]): 6.00 to 7.00
- pIC50 (BACE1 [2]): 6.00 to 7.00
SMILES: Cc1noc(C)c1-c1ccc2c(c1)[C@]1(COC(N)=N1)c1cc(-c3cccnc3)ccc1O2 [compound 704]

- pIC50 (BACE1 [1]; Table IV, class symbols): > 7.00
- pIC50 (BACE1 [2]; Table IV, class symbols): 6.00 to 7.00
SMILES: NC1=N[C@]2(CO1)c1cc(-c3cccnc3F)ccc1Oc1c(F)cccc12 [compound 574]

- pIC50 (BACE1 [1]): 5.30 to 6.00
- pIC50 (BACE1 [2]): < 5.30
SMILES: COC(=O)/C=C/c1ccc2c(c1)[C@@]1(COC(N)=N1)c1cc(Br)ccc1O2 [compound 950]

Continued, molecule first:

SMILES: NC1=N[C@@]2(CO1)c1cc(-c3cccnc3F)ccc1Oc1ccc([C@H]3CCCCO3)cc12 [compound 365]
- pIC50 (BACE1 [1]; [3]): > 7.00
- pIC50 (BACE1 [2]; [4]): > 7.00

SMILES: NC1=N[C@@]2(CO1)c1cc(-c3cccnc3F)ccc1Oc1c(F)cc(C3CCOCC3)cc12 [compound 385, (4S)-4′-fluoro-7′-(2-fluoro-3-pyridinyl)-2′-(tetrahydro-2H-pyran-4-yl)spiro[1,3-oxazole-4,9′-xanthen]-2-amine]
- pIC50 (BACE1 [1]; [3]): > 7.00
- pIC50 (BACE1 [2]; [4]): > 7.00

SMILES: CC(C)(C)/C=C/c1cnc2c(c1)[C@]1(COC(N)=N1)c1cc(-c3cccnc3F)ccc1O2 [compound 380]
- pIC50 (BACE1 [1]; [3]): > 7.00
- pIC50 (BACE1 [2]; [4]): > 7.00

SMILES: COc1ccc2c(c1)[C@]1(COC(N)=N1)c1cc(C3=CCOCC3)cc(F)c1O2 [compound 363]
- pIC50 (BACE1 [1]; [3]): < 5.30
- pIC50 (BACE1 [2]; [4]): < 5.30

SMILES: CC(C)(C#N)COc1ccc2c(c1)[C@]1(COC(N)=N1)c1cc(C#CC3CC3)ccc1O2 [compound 178]
- IC50 (BACE1 [1]): < 0.1 µM
- IC50 (BACE1 [2]): 0.1 to 1 µM

SMILES: CC(C)(C)COc1ccc2c(c1)[C@@]1(COC(N)=N1)c1cc(C(=O)N3CCCC3)ccc1O2 [218a]
- IC50 (BACE1 [1]): 0.1 to 1 µM
- IC50 (BACE1 [2]): 1 to 5 µM

SMILES: CC(C)(O)C#Cc1ccc2c(c1)[C@@]1(COC(N)=N1)c1cc(Br)cnc1O2 [compound 173]
- IC50 (BACE1 [1]): 1 to 5 µM
- IC50 (BACE1 [2]): > 5 µM

SMILES: NC1=N[C@]2(CO1)c1cc(-c3cccnc3)ccc1Oc1ncc(Br)cc12 [compound 174]
- IC50 (BACE1 [1]): < 0.1 µM
- IC50 (BACE1 [2]): 0.1 to 1 µM

SMILES: CC(C)(F)COc1cc2c(cc1F)Oc1ccc(-c3cccnc3)cc1[C@@]21COC(N)=N1 [compound 353, (4S)-3′-fluoro-2′-(2-fluoro-2-methylpropoxy)-7′-(3-pyridinyl)spiro[1,3-oxazole-4,9′-xanthen]-2-amine]
- pIC50 (BACE1 [1]; [3]): > 7.00
- pIC50 (BACE1 [2]; [4]): > 7.00

SMILES: Cc1ncccc1-c1ccc2c(c1)[C@@]1(COC(N)=N1)c1cc(OCC(C)(C)C)ccc1O2 [Example 79, (4S)-2′-(2,2-dimethylpropoxy)-7′-(2-methyl-3-pyridinyl)spiro[1,3-oxazole-4,9′-xanthen]-2-amine]
- pIC50 (BACE1 [1]; Table II): 6.00 to 7.00
- pIC50 (BACE1 [2]; Table II, Aβ40, 24 h incubation): 6.00 to 7.00

SMILES: COc1ccc2c(c1)[C@@]1(N=C(N)O[C@@H]1C)c1cc(-c3cncnc3)ccc1O2 (single isomer, unassigned) [Example 125d]
- IC50 (BACE1 [1]): 0.1 to 1 µM
- IC50 (BACE1 [2]): 0.1 to 1 µM

SMILES: CC1(C)C=C(c2cnc3c(c2)[C@]2(COC(N)=N2)c2cc(-c4cncnc4)ccc2O3)CCO1 [compound 478]
- pIC50 (BACE1 [1]): > 7.00
- pIC50 (BACE1 [2]; HEK cells): > 7.00

SMILES: NC1=N[C@]2(CO1)c1cc(OCC3CCOCC3)ccc1Oc1ccc(-c3cncnc3)cc12 [compound 175]
- IC50 (BACE1 [1]): < 0.1 µM
- IC50 (BACE1 [2]): < 0.1 µM
